Measured values taken from article PMC3350394, “Kinetic analysis and test-retest variability of the radioligand [^11C](R)-PK11195 binding to TSPO in the human brain - a PET study in control subjects” (EJNMMI Research, 2012).
Where “and” joins values, the source holds several entries; their conditions need not be identical. Equal entries are not always repeated.

Target: TSPO (Homo sapiens, UniProt P30536)
Experiment: PET, kinetic compartment analysis (1TCM, 2TCM) with metabolite-corrected arterial input function
Details: for BPND (k3/k4) Mean: mean of test and retest; for BPND (k3/k4) Retest / BPND (k3/k4) Test / VT (2TCM): mean(SD); for BPND (k3/k4) Retest / BPND (k3/k4) Test: 6 subjects; for ICC: BPND test-retest
Procedure: Each subject was placed recumbent with the head in the PET system. A head fixation system with an individual plaster helmet was used. A cannula was inserted into the left radial artery and another into the right antecubital vein. A sterile phosphate buffer (pH = 7.4) containing radioligand was injected as a bolus over 2 s into the cubital vein. The cannula was then immediately flushed with a 10-mL saline solution. In each individual, the measurement was repeated after approximately 6 weeks.
The PET system used was ECAT Exact HR 47 (Siemens/CTI, Knoxville, TN, USA), with an in-plane and an axial resolution of 3.6 and 4.0 mm, respectively, full width at half maximum (FWHM). The radioactivity in the brain was measured continuously for 60 min using a pre-programmed sequence of […] (20 s × 9, 30 s × 6, 180 s × 5, 300 s × 5). […] The images were reconstructed with a Hanning filter (FWHM = 2 mm) in a matrix of 128 × 128 × 47 voxels, yielding a voxel size of 2.03 × 2.03 × 3.125 mm. Attenuation correction was done using transmission scan data obtained for each subject.
[^11C](R)-PK11195 binding to TSPO was quantified using kinetic compartment analyses with the metabolite-corrected arterial plasma curve as input function. Two compartment models (one- and two-tissue) were used to fit the model to the TACs. The fractional volume of blood present in the tissue volume and bolus time were estimated for each individual, each occasion, by fitting the whole brain TAC with a two-tissue compartment model.
The one-tissue compartment model (1TCM) describes one compartment which is a composite of free, non-specifically and specifically bound radioligands. The two rate constants, K1 and k2, describe the influx and efflux rates across the blood-brain barrier, respectively.
The two-tissue compartment model (2TCM) has been described in detail in the literature. The two-tissue compartments are defined as the radioactivity concentration of a nondisplaceable radioligand in the brain (CND) and the radioactivity concentration of a radioligand specifically bound to receptors (CB). In this model, four rate constants (K1, k2, k3 and k4) explain the time curves for radioligand in the brain. In short, the four rate constants were determined by curve fitting with a weighted non-linear least squares fitting technique with constraint-restricting parameters between 0 and 0.9. Each initial value for K1, k2, k3 and k4 was 0.5, 0.1, 0.5 and 0.5, respectively. The local minimum of the sum of the squared residuals was determined by iteration.
Regional [^11C](R)-PK11195 binding was expressed using the concept of the total distribution volume (VT), which is defined by the following equation, using kinetic constants obtained from 2TCM [16, 20, 21].
Specific [^11C](R)-PK11195 binding was expressed as binding potential relative to nondisplaceable binding (BPND) as follows:
The fractional volume of blood present in the tissue volume was determined for each individual, each occasion. It was obtained by fitting whole brain TAC with a 2TCM with six parameters (K1, k2, k3, k4, fractional blood volume (VB) and time shift between plasma input function and PET TAC (tbolus)) and parameters VB and tbolus subsequently applied for each brain region.
The reproducibility of two successive PET measurements was analysed by means of descriptive statistics (mean, range, SD, coefficient of variance (CV), difference in measurement (error in percent) and intra-class correlation coefficient (ICC)). The ICC was calculated from the between-subject and within-subject variations, using the expression: […]

[1] = brainstem, BPND test-retest difference in measurements
[2] = brainstem, VT (2TCM) test-retest
[3] = caudate (L), BPND test-retest difference in measurements
[4] = caudate (R), BPND test-retest difference in measurements
[5] = cerebellum, BPND test-retest difference in measurements
[6] = cerebellum, VT (2TCM) test-retest
[7] = grey matter, cortex, BPND test-retest difference in measurements
[8] = grey matter, 1TCM, retest (2), individual subjects 1-6
[9] = grey matter, 1TCM, test (1), individual subjects 1-6
[10] = grey matter, 1TCM, test (1), mean(SD/CV) of 6 subjects
[11] = grey matter, 2TCM, retest (2), individual subjects 1-6
[12] = grey matter, 2TCM, retest (2), mean(SD/CV) of 6 subjects
[13] = grey matter, 2TCM, test (1), individual subjects 1-6
[14] = grey matter, 2TCM, test (1), mean(SD/CV) of 6 subjects
[15] = grey matter, VT (2TCM) test-retest
[16] = putamen (L), BPND test-retest difference in measurements

TSPO, sequence (P30536 whole entry): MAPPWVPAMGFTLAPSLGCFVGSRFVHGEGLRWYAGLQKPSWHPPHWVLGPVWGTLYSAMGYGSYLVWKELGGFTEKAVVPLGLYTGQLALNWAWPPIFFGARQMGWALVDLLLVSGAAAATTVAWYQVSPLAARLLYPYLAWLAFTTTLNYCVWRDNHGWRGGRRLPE

Compound: CC[C@@H](C)N([11CH3])C(=O)c1cc2ccccc2c(-c2ccccc2Cl)n1 [[^11C](R)-PK11195]
- influx rate constant K1 (2TCM, range): 0.05 to 0.09
- BPND throughout the human brain, range (2TCM, regional means): 1.11 to 2.21
- BPND (k3/k4) Mean (brainstem, 2TCM): 2.09
- BPND (k3/k4) Retest (brainstem, 2TCM): 2.18(0.33)
- BPND (k3/k4) Test (brainstem, 2TCM): 2.00(0.35)
- ICC (brainstem): -0.6
- Error % mean(SD) [1]: -13(31) %
- Error range (%) [1]: -45 to 26%
- Error % mean(SD) [2]: -13(10) %
- Error range (%) [2]: -29 to -1%
- VT (2TCM) (brainstem, retest): 0.74 (0.16)
- VT (2TCM) (brainstem, test): 0.86(0.18)
- BPND (k3/k4) Mean (caudate (L), 2TCM): 1.68
- BPND (k3/k4) Retest (caudate (L), 2TCM): 1.84(0.93)
- BPND (k3/k4) Test (caudate (L), 2TCM): 1.52(0.43)
- ICC (caudate (L)): -0.05
- Error % mean(SD) [3]: -27(66) %
- Error range (%) [3]: -133 to 42%
- BPND (k3/k4) Mean (caudate (R), 2TCM): 1.77
- BPND (k3/k4) Retest (caudate (R), 2TCM): 2.21(1.19)
- BPND (k3/k4) Test (caudate (R), 2TCM): 1.33(0.68)
- ICC (caudate (R)): 0.01
- Error % mean(SD) [4]: -96(126) %
- Error range (%) [4]: -288 to12%
- BPND (k3/k4) Mean (caudate, 2TCM): 1.65
- BPND (k3/k4) Retest (caudate, 2TCM): 1.92(0.87)
- BPND (k3/k4) Test (caudate, 2TCM): 1.37(0.55)
- ICC (caudate): 0.01
- Error range (%) (caudate, BPND test-retest difference in measurements): -155 to 30%
- Error % mean(SD) (caudate, VT (2TCM) test-retest): 25(36) %
- Error range (%) (caudate, VT (2TCM) test-retest): -35 to 62%
- VT (2TCM) (caudate, retest): 1.06 (0.24)
- VT (2TCM) (caudate, test): 0.88(0.13)
- BPND (k3/k4) Mean (cerebellum, 2TCM): 1.33
- BPND (k3/k4) Retest (cerebellum, 2TCM): 1.37(0.24)
- BPND (k3/k4) Test (cerebellum, 2TCM): 1.29(0.19)
- ICC (cerebellum): 0.07
- Error % mean(SD) [5]: -8% and -8(20) %
- Error range (%) [5]: -21 to 32%
- Error % mean(SD) [6]: -1(18) %
- Error range (%) [6]: -32 to 24%
- VT (2TCM) (cerebellum, retest): 0.72 (0.16)
- VT (2TCM) (cerebellum, test): 0.74(0.18)
- BPND (k3/k4) Mean (grey matter, cortex, 2TCM): 1.55
- BPND (k3/k4) Retest (grey matter, cortex, 2TCM): 1.59(0.29)
- BPND (k3/k4) Test (grey matter, cortex, 2TCM): 1.50(0.27)
- ICC (grey matter, cortex): 0.47
- Error % mean(SD) [7]: 5% and 5(18) %
- Error range (%) [7]: -24 to 25%
- K1 [8]: 0.094 mL/cc/min and 0.035 mL/cc/min and 0.044 mL/cc/min and 0.045 mL/cc/min and 0.056 mL/cc/min and 0.057 mL/cc/min
- k2 [8]: 0.111 min⁻¹ and 0.086 min⁻¹ and 0.108 min⁻¹ and 0.091 min⁻¹ and 0.099 min⁻¹ and 0.118 min⁻¹
- k2 (grey matter, 1TCM, retest (2), mean(SD/CV) of 6 subjects): 0.102(0.012/12) min^-1
- K1 [9]: 0.062 mL/cc/min and 0.037 mL/cc/min and 0.042 mL/cc/min and 0.074 mL/cc/min and 0.054 mL/cc/min
- k2 [9]: 0.086 min⁻¹ and 0.087 min⁻¹ and 0.111 min⁻¹ and 0.106 min⁻¹ and 0.116 min⁻¹ and 0.096 min⁻¹
- K1 [10]: 0.055(0.014/25) mL/cc/min
- k2 [10]: 0.100(0.012/12) min^-1
- K1 [11]: 0.077 mL/cc/min and 0.129 mL/cc/min and 0.049 mL/cc/min and 0.067 mL/cc/min and 0.060 mL/cc/min and 0.073 mL/cc/min
- k2 [11]: 0.287 min⁻¹ and 0.318 min⁻¹ and 0.246 min⁻¹ and 0.340 min⁻¹ and 0.239 min⁻¹ and 0.234 min⁻¹
- k3 [11]: 0.059 min⁻¹ and 0.111 min⁻¹ and 0.062 min⁻¹ and 0.068 min⁻¹ and 0.065 min⁻¹
- k4 [11]: 0.041 min⁻¹ and 0.076 min⁻¹ and 0.035 min⁻¹ and 0.032 min⁻¹ and 0.045 min⁻¹ and 0.044 min⁻¹
- K1 [12]: 0.076 (0.028/37) mL/cc/min
- k2 [12]: 0.277(0.045/16) min^-1
- k3 [12]: 0.071(0.02/28) min^-1
- k4 [12]: 0.046(0.016/34) min^-1
- K1 [13]: 0.082 mL/cc/min and 0.048 mL/cc/min and 0.054 mL/cc/min and 0.094 mL/cc/min and 0.072 mL/cc/min
- k2 [13]: 0.220 min⁻¹ and 0.245 min⁻¹ and 0.221 min⁻¹ and 0.264 min⁻¹ and 0.252 min⁻¹
- k3 [13]: 0.061 min⁻¹ and 0.055 min⁻¹ and 0.040 min⁻¹ and 0.038 min⁻¹ and 0.076 min⁻¹ and 0.058 min⁻¹
- k4 [13]: 0.033 min⁻¹ and 0.038 min⁻¹ and 0.023 min⁻¹ and 0.029 min⁻¹ and 0.067 min⁻¹ and 0.026 min⁻¹
- K1 [14]: 0.072(0.018/25) mL/cc/min
- k2 [14]: 0.237(0.019/8) min^-1
- k3 [14]: 0.055(0.014/25) min^-1
- Error % mean(SD) [15]: -6(17) %
- Error range (%) [15]: -36 to 15%
- VT (2TCM) (grey matter, retest): 0.70 (0.17)
- VT (2TCM) (grey matter, test): 0.76(0.18)
- BPND (k3/k4) Mean (putamen (L), 2TCM): 1.44
- BPND (k3/k4) Retest (putamen (L), 2TCM): 1.60(0.67)
- BPND (k3/k4) Test (putamen (L), 2TCM): 1.28(0.31)
- ICC (putamen (L)): 0.02
- Error % mean(SD) [16]: -30(59) %
- Error range (%) [16]: -145 to 23%
